Like-named read-outs stand apart in the source and are kept apart here.
What was measured:
Assay in all cases: biochemical
Design in all cases: KINOMEscan active site-directed competition binding assay (DiscoveRx), 456 kinases, per cent of control at 300 nM
Settings in all cases: read-out: Percent of Control (%)
KIT(A829P) = KIT(A829P) (Homo sapiens, UniProt P10721, A829P)
Method in brief: (§1)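 Each compound is tested at 300 nmol/L against a panel of 456 kinases. Interaction is quantified by competition for the kinase active site.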

[1] = molecular target: T1, ABL1(T315I)-phosphorylated (Homo sapiens, UniProt P00519, T315I)
T1 construct: phosphorylated
Method in brief: as §1

PIM3 = PIM3 (Homo sapiens, UniProt Q86V86)
Method in brief: as §1

BIKE = molecular target: T2, BIKE (Homo sapiens, UniProt Q9NSY1)
T2 construct: gene BMP2K
T2 sequence (Q9NSY1 whole entry): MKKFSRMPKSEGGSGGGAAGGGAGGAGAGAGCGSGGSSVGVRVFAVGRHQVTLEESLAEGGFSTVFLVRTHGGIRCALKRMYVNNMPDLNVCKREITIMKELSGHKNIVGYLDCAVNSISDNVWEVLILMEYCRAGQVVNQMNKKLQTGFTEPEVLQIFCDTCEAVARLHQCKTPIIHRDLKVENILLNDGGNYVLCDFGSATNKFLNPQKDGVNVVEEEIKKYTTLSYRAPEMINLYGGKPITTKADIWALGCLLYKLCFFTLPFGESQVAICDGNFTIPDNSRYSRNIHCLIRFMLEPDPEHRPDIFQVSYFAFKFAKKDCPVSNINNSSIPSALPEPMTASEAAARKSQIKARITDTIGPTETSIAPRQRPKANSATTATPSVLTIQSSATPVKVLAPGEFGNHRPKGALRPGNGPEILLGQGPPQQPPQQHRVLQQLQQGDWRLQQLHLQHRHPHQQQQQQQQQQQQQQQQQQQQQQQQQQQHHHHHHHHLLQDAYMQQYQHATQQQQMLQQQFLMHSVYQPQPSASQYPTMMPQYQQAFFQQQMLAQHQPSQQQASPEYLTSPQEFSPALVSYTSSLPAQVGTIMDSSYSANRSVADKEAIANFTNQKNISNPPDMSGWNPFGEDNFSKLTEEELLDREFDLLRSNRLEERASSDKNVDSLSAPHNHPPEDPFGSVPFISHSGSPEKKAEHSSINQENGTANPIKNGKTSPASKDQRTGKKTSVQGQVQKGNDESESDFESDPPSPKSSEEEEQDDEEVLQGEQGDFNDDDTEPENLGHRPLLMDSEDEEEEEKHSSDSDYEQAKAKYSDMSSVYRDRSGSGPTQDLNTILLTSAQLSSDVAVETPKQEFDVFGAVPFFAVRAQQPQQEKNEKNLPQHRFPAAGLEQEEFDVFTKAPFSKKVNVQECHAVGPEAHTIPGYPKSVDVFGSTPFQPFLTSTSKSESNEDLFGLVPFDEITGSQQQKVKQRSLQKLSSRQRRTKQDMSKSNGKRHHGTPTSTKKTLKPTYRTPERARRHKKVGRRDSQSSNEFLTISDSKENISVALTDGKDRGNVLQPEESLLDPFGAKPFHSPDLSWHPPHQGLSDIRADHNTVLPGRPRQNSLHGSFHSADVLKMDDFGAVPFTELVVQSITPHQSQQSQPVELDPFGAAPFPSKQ
Method in brief: as §1

TRKA = molecular target: T3, TRKA (Homo sapiens, UniProt P04629)
T3 construct: gene NTRK1
Method in brief: as §1

STK16 = STK16 (Homo sapiens, UniProt O75716)
Sequence of STK16 (O75716 whole entry): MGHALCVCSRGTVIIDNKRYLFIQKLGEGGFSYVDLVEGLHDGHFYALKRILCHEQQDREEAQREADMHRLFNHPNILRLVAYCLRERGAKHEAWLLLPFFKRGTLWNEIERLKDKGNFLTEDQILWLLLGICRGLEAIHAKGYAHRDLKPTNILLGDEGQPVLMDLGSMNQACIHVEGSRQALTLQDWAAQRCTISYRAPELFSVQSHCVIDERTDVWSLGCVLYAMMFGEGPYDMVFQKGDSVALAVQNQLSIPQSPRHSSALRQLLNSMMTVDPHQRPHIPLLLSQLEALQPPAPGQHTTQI
Method in brief: as §1

STK33 = STK33 (Homo sapiens, UniProt Q9BYT3)
Method in brief: as §1

RIOK1 = RIOK1 (Homo sapiens, UniProt Q9BRS2)
Method in brief: as §1

ERK5 = molecular target: T4, ERK5 (Homo sapiens, UniProt Q13164)
T4 construct: gene MAPK7
T4 sequence (Q13164 whole entry): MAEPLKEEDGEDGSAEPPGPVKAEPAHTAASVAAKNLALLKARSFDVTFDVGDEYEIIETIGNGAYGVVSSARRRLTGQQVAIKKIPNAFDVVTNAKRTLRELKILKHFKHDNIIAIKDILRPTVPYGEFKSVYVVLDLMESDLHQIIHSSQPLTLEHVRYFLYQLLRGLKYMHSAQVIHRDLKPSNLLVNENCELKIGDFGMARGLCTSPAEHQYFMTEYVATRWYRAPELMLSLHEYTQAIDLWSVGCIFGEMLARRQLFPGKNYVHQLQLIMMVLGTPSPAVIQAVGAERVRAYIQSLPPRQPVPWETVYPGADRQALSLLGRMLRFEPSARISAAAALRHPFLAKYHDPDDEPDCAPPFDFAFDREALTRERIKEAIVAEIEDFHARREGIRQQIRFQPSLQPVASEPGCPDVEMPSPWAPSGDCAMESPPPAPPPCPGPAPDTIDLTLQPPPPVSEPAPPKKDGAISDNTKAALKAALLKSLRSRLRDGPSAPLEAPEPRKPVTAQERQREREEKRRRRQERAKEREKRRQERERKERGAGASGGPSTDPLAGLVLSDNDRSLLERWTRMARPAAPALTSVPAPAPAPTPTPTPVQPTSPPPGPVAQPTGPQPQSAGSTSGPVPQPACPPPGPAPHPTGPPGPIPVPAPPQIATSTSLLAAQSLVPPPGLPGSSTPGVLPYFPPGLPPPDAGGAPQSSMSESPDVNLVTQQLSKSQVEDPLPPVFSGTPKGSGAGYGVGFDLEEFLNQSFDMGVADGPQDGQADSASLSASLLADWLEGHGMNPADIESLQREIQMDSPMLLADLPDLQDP
Method in brief: as §1

RAF1 = RAF1 (Homo sapiens, UniProt P04049)
Sequence of RAF1 (P04049 whole entry): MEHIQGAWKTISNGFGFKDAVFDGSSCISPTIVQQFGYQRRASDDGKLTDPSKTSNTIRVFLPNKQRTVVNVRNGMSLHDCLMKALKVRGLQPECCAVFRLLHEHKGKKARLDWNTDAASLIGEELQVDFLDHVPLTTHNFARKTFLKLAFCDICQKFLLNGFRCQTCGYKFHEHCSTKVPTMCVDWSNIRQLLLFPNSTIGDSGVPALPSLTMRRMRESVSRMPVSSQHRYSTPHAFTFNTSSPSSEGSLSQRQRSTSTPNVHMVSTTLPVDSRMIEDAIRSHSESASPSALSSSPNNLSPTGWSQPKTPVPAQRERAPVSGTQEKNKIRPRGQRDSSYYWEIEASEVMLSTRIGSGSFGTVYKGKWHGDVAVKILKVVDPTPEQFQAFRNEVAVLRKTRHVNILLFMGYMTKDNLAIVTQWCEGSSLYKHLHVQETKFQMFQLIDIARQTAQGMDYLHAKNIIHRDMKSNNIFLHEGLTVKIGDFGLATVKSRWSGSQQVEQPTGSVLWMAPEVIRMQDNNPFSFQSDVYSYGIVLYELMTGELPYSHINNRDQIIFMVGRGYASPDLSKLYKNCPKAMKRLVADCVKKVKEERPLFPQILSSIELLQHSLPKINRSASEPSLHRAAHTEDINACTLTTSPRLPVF
Method in brief: as §1

EGFR(L747-T751del,Sins) = EGFR(L747-T751del,Sins) (Homo sapiens, UniProt P00533, DEL747-750/T751S)
Method in brief: as §1

SRPK3 = SRPK3 (Homo sapiens, UniProt Q9UPE1)
Sequence of SRPK3 (Q9UPE1 whole entry): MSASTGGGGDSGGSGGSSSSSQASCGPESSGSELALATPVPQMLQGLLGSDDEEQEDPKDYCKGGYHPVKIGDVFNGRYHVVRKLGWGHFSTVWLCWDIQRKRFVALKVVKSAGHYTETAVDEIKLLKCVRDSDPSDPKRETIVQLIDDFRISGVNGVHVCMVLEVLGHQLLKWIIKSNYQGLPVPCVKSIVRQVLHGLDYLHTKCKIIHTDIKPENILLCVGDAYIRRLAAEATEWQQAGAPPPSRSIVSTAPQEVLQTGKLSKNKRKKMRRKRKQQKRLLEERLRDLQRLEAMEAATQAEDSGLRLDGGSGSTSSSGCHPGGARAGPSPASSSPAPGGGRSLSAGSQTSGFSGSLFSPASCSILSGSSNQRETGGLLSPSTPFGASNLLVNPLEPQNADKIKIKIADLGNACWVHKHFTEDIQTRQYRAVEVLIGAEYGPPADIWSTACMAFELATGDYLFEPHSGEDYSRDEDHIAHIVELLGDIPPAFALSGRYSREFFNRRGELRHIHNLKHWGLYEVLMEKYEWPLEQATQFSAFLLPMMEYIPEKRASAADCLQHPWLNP
Method in brief: as §1

PDPK1 = PDPK1 (Homo sapiens, UniProt O15530)
Method in brief: as §1

PIK3CA(E542K) = PIK3CA(E542K) (Homo sapiens, UniProt P42336, E542K)
Method in brief: as §1

BLK = BLK (Homo sapiens, UniProt P51451)
Method in brief: as §1

ZAK = molecular target: T5, ZAK (Homo sapiens, UniProt Q9NYL2)
T5 construct: gene MAP3K20
T5 sequence (Q9NYL2 whole entry): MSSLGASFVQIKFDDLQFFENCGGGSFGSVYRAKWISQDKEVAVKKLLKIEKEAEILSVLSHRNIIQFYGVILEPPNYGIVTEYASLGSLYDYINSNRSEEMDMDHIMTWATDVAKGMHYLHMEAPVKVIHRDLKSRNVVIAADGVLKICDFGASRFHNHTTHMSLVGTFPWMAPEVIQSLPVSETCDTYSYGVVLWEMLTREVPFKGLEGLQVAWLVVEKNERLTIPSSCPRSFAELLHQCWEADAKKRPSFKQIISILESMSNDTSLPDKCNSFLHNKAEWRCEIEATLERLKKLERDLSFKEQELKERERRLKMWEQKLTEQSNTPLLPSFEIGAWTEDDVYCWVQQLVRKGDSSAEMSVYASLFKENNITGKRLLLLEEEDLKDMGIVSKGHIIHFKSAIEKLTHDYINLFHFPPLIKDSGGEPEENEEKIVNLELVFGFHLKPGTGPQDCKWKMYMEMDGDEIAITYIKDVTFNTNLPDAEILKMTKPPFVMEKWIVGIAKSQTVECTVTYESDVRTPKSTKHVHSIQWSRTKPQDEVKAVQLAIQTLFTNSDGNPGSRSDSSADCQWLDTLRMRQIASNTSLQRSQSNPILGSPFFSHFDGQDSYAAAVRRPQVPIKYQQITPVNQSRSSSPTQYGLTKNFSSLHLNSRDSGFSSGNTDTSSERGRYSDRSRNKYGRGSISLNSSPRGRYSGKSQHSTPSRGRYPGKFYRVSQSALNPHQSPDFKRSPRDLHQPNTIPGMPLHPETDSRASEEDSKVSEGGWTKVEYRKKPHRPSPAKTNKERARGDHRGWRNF
Method in brief: as §1

CDKL5 = CDKL5 (Homo sapiens, UniProt O76039)
Method in brief: as §1

KIT-autoinhibited = KIT-autoinhibited (Homo sapiens, UniProt P10721)
Method in brief: as §1

PRKG2 = PRKG2 (Homo sapiens, UniProt Q13237)
Method in brief: as §1

AMPK-alpha2 = molecular target: T6, AMPK-alpha2 (Homo sapiens, UniProt P54646)
T6 construct: gene PRKAA2
T6 sequence (P54646 whole entry): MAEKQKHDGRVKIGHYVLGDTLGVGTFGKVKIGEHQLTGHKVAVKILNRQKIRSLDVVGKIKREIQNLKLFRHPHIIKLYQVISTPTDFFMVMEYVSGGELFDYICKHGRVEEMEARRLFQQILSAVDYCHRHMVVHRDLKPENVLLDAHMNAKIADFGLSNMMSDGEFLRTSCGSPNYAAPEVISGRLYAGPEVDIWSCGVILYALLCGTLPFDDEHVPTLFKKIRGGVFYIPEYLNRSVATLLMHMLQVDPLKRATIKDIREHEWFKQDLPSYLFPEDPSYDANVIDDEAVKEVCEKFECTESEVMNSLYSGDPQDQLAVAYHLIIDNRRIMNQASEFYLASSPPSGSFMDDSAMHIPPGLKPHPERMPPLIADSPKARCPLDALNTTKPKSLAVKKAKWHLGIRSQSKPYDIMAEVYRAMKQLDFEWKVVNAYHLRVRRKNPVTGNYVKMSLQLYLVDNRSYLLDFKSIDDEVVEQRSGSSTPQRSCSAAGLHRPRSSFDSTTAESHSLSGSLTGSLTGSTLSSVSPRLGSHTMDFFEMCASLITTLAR
Method in brief: as §1

CASK = CASK (Homo sapiens, UniProt O14936)
Method in brief: as §1

**Q.** Which remaining binding at 0.3 µM (KIT(A829P)) does the source give for Cc1ncccc1Oc1sc(C(N)=O)c2c1-c1c(cnn1C)CC2 [T-474, 1-methyl-8-((2-methylpyridin-3-yl)oxy)-4,5-dihydro-1H-thieno[3,4-g]indazole-6-carboxamide] here?
**A.** Its remaining binding at 0.3 µM is 99%.

**Q.** What about the remaining binding at 0.3 µM [1] of the same compound?
**A.** Its remaining binding at 0.3 µM is 100%.

**Q.** What about the remaining binding at 0.3 µM (PIM3) of the same compound?
**A.** The remaining binding at 0.3 µM was 82%.

**Q.** What about the remaining binding at 0.3 µM (BIKE) of the same compound?
**A.** The remaining binding at 0.3 µM was 100%.

**Q.** And the remaining binding at 0.3 µM (TRKA)?
**A.** Its remaining binding at 0.3 µM is 95%.

**Q.** What about the remaining binding at 0.3 µM (STK16) of the same compound?
**A.** Its remaining binding at 0.3 µM is 88%.

**Q.** What about the remaining binding at 0.3 µM (STK33) of the same compound?
**A.** The remaining binding at 0.3 µM was 86%.

**Q.** What about the remaining binding at 0.3 µM (RIOK1) of the same compound?
**A.** Its remaining binding at 0.3 µM is 98%.

**Q.** What about the remaining binding at 0.3 µM (ERK5) of the same compound?
**A.** The remaining binding at 0.3 µM was 98%.

**Q.** What about the remaining binding at 0.3 µM (RAF1) of the same compound?
**A.** Its remaining binding at 0.3 µM is 98%.

**Q.** What about the remaining binding at 0.3 µM (EGFR(L747-T751del,Sins)) of the same compound?
**A.** Its remaining binding at 0.3 µM is 87%.

**Q.** And the remaining binding at 0.3 µM (SRPK3)?
**A.** Its remaining binding at 0.3 µM is 100%.

**Q.** And the remaining binding at 0.3 µM (PDPK1)?
**A.** The remaining binding at 0.3 µM was 70%.

**Q.** What about the remaining binding at 0.3 µM (PIK3CA(E542K)) of the same compound?
**A.** The remaining binding at 0.3 µM was 100%.

**Q.** What about the remaining binding at 0.3 µM (BLK) of the same compound?
**A.** The remaining binding at 0.3 µM was 100%.

**Q.** What about the remaining binding at 0.3 µM (ZAK) of the same compound?
**A.** Its remaining binding at 0.3 µM is 74%.

**Q.** What about the remaining binding at 0.3 µM (CDKL5) of the same compound?
**A.** Its remaining binding at 0.3 µM is 100%.

**Q.** And the remaining binding at 0.3 µM (KIT-autoinhibited)?
**A.** The remaining binding at 0.3 µM was 100%.

**Q.** What about the remaining binding at 0.3 µM (PRKG2) of the same compound?
**A.** Its remaining binding at 0.3 µM is 48%.

**Q.** And the remaining binding at 0.3 µM (AMPK-alpha2)?
**A.** Its remaining binding at 0.3 µM is 100%.

**Q.** What about the remaining binding at 0.3 µM (CASK) of the same compound?
**A.** The remaining binding at 0.3 µM was 85%.

**Q.** With O=C(/C=C/c1cnccc1-c1ccc(F)cc1)Nc1ccc(CCc2nnco2)cc1 [T-418, (2E)-3-(4-(4-fluorophenyl)pyridin-3-yl)-N-(4-(2-(1,3,4-oxadiazol-2-yl)ethyl)phenyl)acrylamide] as the compound, how does the remaining binding at 0.3 µM (KIT(A829P); sheet T-418) read?
**A.** The remaining binding at 0.3 µM was 100%.

**Q.** And the remaining binding at 0.3 µM ([1]; sheet T-418)?
**A.** The remaining binding at 0.3 µM was 100%.

**Q.** And the remaining binding at 0.3 µM (PIM3; sheet T-418)?
**A.** Its remaining binding at 0.3 µM is 76%.

**Q.** What about the remaining binding at 0.3 µM (BIKE; sheet T-418) of the same compound?
**A.** Its remaining binding at 0.3 µM is 97%.

**Q.** What about the remaining binding at 0.3 µM (TRKA; sheet T-418) of the same compound?
**A.** Its remaining binding at 0.3 µM is 92%.

**Q.** What about the remaining binding at 0.3 µM (STK16; sheet T-418) of the same compound?
**A.** The remaining binding at 0.3 µM was 86%.

**Q.** What about the remaining binding at 0.3 µM (STK33; sheet T-418) of the same compound?
**A.** The remaining binding at 0.3 µM was 91%.

**Q.** And the remaining binding at 0.3 µM (RIOK1; sheet T-418)?
**A.** The remaining binding at 0.3 µM was 97%.

**Q.** And the remaining binding at 0.3 µM (ERK5; sheet T-418)?
**A.** Its remaining binding at 0.3 µM is 75%.

**Q.** What about the remaining binding at 0.3 µM (RAF1; sheet T-418) of the same compound?
**A.** The remaining binding at 0.3 µM was 80%.

**Q.** And the remaining binding at 0.3 µM (EGFR(L747-T751del,Sins); sheet T-418)?
**A.** Its remaining binding at 0.3 µM is 100%.

**Q.** And the remaining binding at 0.3 µM (SRPK3; sheet T-418)?
**A.** The remaining binding at 0.3 µM was 100%.

**Q.** What about the remaining binding at 0.3 µM (PDPK1; sheet T-418) of the same compound?
**A.** The remaining binding at 0.3 µM was 64%.

**Q.** And the remaining binding at 0.3 µM (PIK3CA(E542K); sheet T-418)?
**A.** The remaining binding at 0.3 µM was 100%.

**Q.** And the remaining binding at 0.3 µM (BLK; sheet T-418)?
**A.** The remaining binding at 0.3 µM was 100%.

**Q.** What about the remaining binding at 0.3 µM (ZAK; sheet T-418) of the same compound?
**A.** Its remaining binding at 0.3 µM is 73%.

**Q.** And the remaining binding at 0.3 µM (CDKL5; sheet T-418)?
**A.** Its remaining binding at 0.3 µM is 88%.

**Q.** What about the remaining binding at 0.3 µM (KIT-autoinhibited; sheet T-418) of the same compound?
**A.** The remaining binding at 0.3 µM was 100%.

**Q.** And the remaining binding at 0.3 µM (PRKG2; sheet T-418)?
**A.** Its remaining binding at 0.3 µM is 49%.

**Q.** What about the remaining binding at 0.3 µM (AMPK-alpha2; sheet T-418) of the same compound?
**A.** The remaining binding at 0.3 µM was 100%.

**Q.** What about the remaining binding at 0.3 µM (CASK; sheet T-418) of the same compound?
**A.** The remaining binding at 0.3 µM was 89%.

Reference: publication PMC5862592, “CDK8/19 inhibition induces premature G1/S transition and ATR-dependent cell death in prostate cancer cells” (Oncotarget, 2018)
